Values of other authors as cited in PMC8435859 (Frontiers in Cellular and Infection Microbiology, 2021).

Columns and labels:
[1] = tested on: PGE2 release; parameters: method as in ref Huang H et al., Journal of Agricultural and Food Chemistry, 2011; conditions: library annotation; ref Huang H et al., Journal of Agricultural and Food Chemistry, 2011; cited from earlier work
[2] = molecular target: aldose reductase; conditions: recombinant human aldose reductase; library annotation; ref Huang H et al., Journal of Agricultural and Food Chemistry, 2011; read-out: inhibition of recombinant human aldose reductase, IC5 value; cited from earlier work
[3] = tested on: TNF-α; parameters: method as in ref Singh B, et al. Natural Product Research, 2013, 27(23):2227-2230.; conditions: anti-inflammatory activity; ref Singh B, et al. Natural Product Research, 2013, 27(23):2227-2230.; read-out: IC50, inhibition of TNF-α; cited from earlier work
[4] = tested on: IL-1β; parameters: method as in ref Singh B, et al. Natural Product Research, 2013, 27(23):2227-2230.; conditions: anti-inflammatory activity; ref Singh B, et al. Natural Product Research, 2013, 27(23):2227-2230.; read-out: IC50, inhibition of IL-1β; cited from earlier work
[5] = tested on: nuclear factor of activated T cells (NFAT) transcription factor; parameters: method as in Phan, C., et al. Biofactors, 2016; conditions: vendor library annotation, ref Phan, C., et al. Biofactors, 2016; cited from earlier work
[6] = tested on: MDAMB231; parameters: method as in Wu ZT, et al. Acta Pharmacol Sin. 2014 Sep;35(9):1188-98; conditions: ref Wu ZT, et al. Acta Pharmacol Sin. 2014 Sep;35(9):1188-98, read-out: IC50, cellular response via inhibition of mTORC1 and induction of ER stress; cited from earlier work
[7] = tested on: HeLa cells; parameters: method as in Wu ZT, et al. Acta Pharmacol Sin. 2014 Sep;35(9):1188-98; conditions: ref Wu ZT, et al. Acta Pharmacol Sin. 2014 Sep;35(9):1188-98, read-out: IC50, autophagy followed by apoptotic cell death; cited from earlier work
[8] = tested on: BT474 cells; parameters: method as in Wu ZT, et al. Acta Pharmacol Sin. 2014 Sep;35(9):1188-98; conditions: ref Wu ZT, et al. Acta Pharmacol Sin. 2014 Sep;35(9):1188-98, read-out: IC50, cellular response via inhibition of mTORC1 and induction of ER stress; cited from earlier work
[9] = molecular target: β-secretase (BACE1); parameters: method as in Murakami, A., et al. Carcinogenesis 21(10), 1843-1850 (2000); conditions: ref Murakami, A., et al. Carcinogenesis 21(10), 1843-1850 (2000); cited from earlier work
[10] = tested on: B16F10 cell; parameters: method as in ref Abe F, Nagao T, Okabe H. Biological & Pharmaceutical Bulletin, 2002, 25(7):920-922; conditions: ref Abe F, Nagao T, Okabe H. Biological & Pharmaceutical Bulletin, 2002, 25(7):920-922, read-out: GI50 against B16F10 cell; cited from earlier work
[11] = molecular target: 6-phosphogluconate dehydrogenase; parameters: method as in Ma X, et al. Pest Manag Sci, 2010, 66(7), 718-724; conditions: ref Ma X, et al. Pest Manag Sci, 2010, 66(7), 718-724; cited from earlier work
[12] = molecular target: 6-phosphogluconate dehydrogenase; parameters: method as in Ma X, et al. Pest Manag Sci, 2010, 66(7), 718-724; conditions: ref Ma X, et al. Pest Manag Sci, 2010, 66(7), 718-724; cited from earlier work; remark: listed apart in the source
[13] = tested on: HepG2; parameters: method as in Jo SP, Kim JK, Lim YH. Planta Med. 2014 Aug;80(13):1067-71; conditions: HepG2 cancer cell line; ref Jo SP, Kim JK, Lim YH. Planta Med. 2014 Aug;80(13):1067-71; read-out: IC50, proliferation of HepG2; cited from earlier work
[14] = tested on: cytochrome P450 1A1; parameters: method as in Jo SP, Kim JK, Lim YH. Planta Med. 2014 Aug;80(13):1067-71; conditions: mechanism-based, selective inactivator; ref Jo SP, Kim JK, Lim YH. Planta Med. 2014 Aug;80(13):1067-71; read-out: IC50, cytochrome P450 1A1 inactivation; cited from earlier work
[15] = tested on: HL-60R; parameters: method as in Jo SP, Kim JK, Lim YH. Planta Med. 2014 Aug;80(13):1067-71; conditions: HL-60R cancer cell line; ref Jo SP, Kim JK, Lim YH. Planta Med. 2014 Aug;80(13):1067-71; read-out: IC50, proliferation of HL-60R; cited from earlier work
[16] = tested on: STAT3; parameters: method as in Shin DS, et al. Cancer Res, 2009, 69(1), 193-202; conditions: cell-free assay; ref Shin DS, et al. Cancer Res, 2009, 69(1), 193-202; cited from earlier work
[17] = tested on: STAT5; parameters: method as in Shin DS, et al. Cancer Res, 2009, 69(1), 193-202; conditions: ref Shin DS, et al. Cancer Res, 2009, 69(1), 193-202; cited from earlier work
[18] = tested on: STAT1; parameters: method as in Shin DS, et al. Cancer Res, 2009, 69(1), 193-202; conditions: ref Shin DS, et al. Cancer Res, 2009, 69(1), 193-202; cited from earlier work
[19] = tested on: PGE2 production; parameters: method as in Kim HJ, et al. Arch Pharm Res. 2016 Feb;39(2):231-239.; conditions: ref Kim HJ, et al. Arch Pharm Res. 2016 Feb;39(2):231-239.; read-out: IC50, inhibitory effect on PGE2 production; cited from earlier work
[20] = tested on: PTP1B; parameters: method as in Xu F, Yang L, Huang X, et al. Mol Divers.; conditions: ref Xu F, Yang L, Huang X, et al. Mol Divers.; read-out: IC50, PTP1B inhibition; cited from earlier work
[21] = molecular target: tyrosinase; parameters: method as in Boissy RE, et al. Exp Dermatol, 2005, 14(8), 601-608; conditions: reversible inhibition; ref Boissy RE, et al. Exp Dermatol, 2005, 14(8), 601-608; cited from earlier work
[22] = tested on: fatty acid synthase; parameters: method as in Tian, WX. Current Medicinal Chemistry, 2006, 13 (8): 967–977; conditions: ref Tian, WX. Current Medicinal Chemistry, 2006, 13 (8): 967–977; cited from earlier work
[23] = tested on: seed germination; parameters: method as in Kim T K, Park K S. Cytokine, 2015, 76(2); conditions: at 3 mM concentration; ref Kim T K, Park K S. Cytokine, 2015, 76(2); cited from earlier work
[24] = tested on: hepatitis B virus (HBV); parameters: method as in Abdelwahed A, et al. Chem Biol Interact. 2007; conditions: at a concentration of 4 microg/ml; library annotation; ref Abdelwahed A, et al. Chem Biol Interact. 2007; cited from earlier work
[25] = tested on: T. castaneum adults; parameters: method as in Tao J, et al. Zhongguo Zhong Yao Za Zhi. 2011; conditions: vendor library annotation, ref Tao J, et al. Zhongguo Zhong Yao Za Zhi. 2011; cited from earlier work
[26] = molecular target: lipase; parameters: method as in Tao J, et al. Zhongguo Zhong Yao Za Zhi. 2011; conditions: vendor library annotation, ref Tao J, et al. Zhongguo Zhong Yao Za Zhi. 2011, read-out: IC5 (lipase inhibitory activity); cited from earlier work
[27] = tested on: T. castaneum adults; parameters: method as in Tao J, et al. Zhongguo Zhong Yao Za Zhi. 2011; conditions: 0.63 μg/cm, vendor library annotation, ref Tao J, et al. Zhongguo Zhong Yao Za Zhi. 2011; cited from earlier work
[28] = tested on: TRPA1; parameters: method as in López-Jiménez et al., European Journal of Nutrition, 2013; conditions: library annotation; ref López-Jiménez et al., European Journal of Nutrition, 2013; read-out: agonist of TRPA1, EC5 value; cited from earlier work
[29] = tested on: cyclin-dependent kinases; conditions: read-out: IC50, cyclin-dependent kinases; ref Hoessel R, et al. Nat Cell Biol, 1999, 1(1), 60-67; cited from earlier work
[30] = tested on: GSK-3β; conditions: read-out: IC50, GSK-3β; ref Hoessel R, et al. Nat Cell Biol, 1999, 1(1), 60-67; cited from earlier work

## CC1OC(OC2C(=O)c3c(O)cc(O)cc3OC2c2ccc(O)cc2)C(O)C(O)C1O (stereo not drawn) [Engeletin]
[1]
  inhibition of PGE2 release, IC5: 19.6 µg/mL
[2]
  IC50: 1.16 µM

## COc1cc2oc(-c3ccccc3)cc(=O)c2c(O)c1OC [MOSLOFLAVONE]
[3]
  IC50: 0.71 µM
[4]
  IC50: 7.8 µM

## COc1cc2oc(-c3ccccc3)cc(=O)c2c(O)c1O [Negletein]
[5]
  IC50: 3.89 µM

## C[C@H]1CC[C@@]2(OC1)O[C@H]1C[C@H]3[C@@H]4CC[C@@H]5C[C@@H](O[C@@H]6O[C@H](CO)[C@H](O)[C@H](O)[C@H]6O[C@@H]6O[C@H](CO)[C@@H](O)[C@H](O)[C@H]6O)CC[C@]5(C)[C@H]4CC[C@]3(C)[C@H]1[C@@H]2C [Timosaponin AIII]
[6]
  IC50: 6 µM
[7]
  IC50: 10 µM
[8]
  IC50: 2.5 µM

## CC(C)=CCC/C(C)=C/COc1ccc2ccc(=O)oc2c1 [Auraptene]
[9]
  IC50: 345 µM

## C[C@@H]1OC(O[C@@H]2[C@@H](O)[C@H](OCCc3ccc(O)c(O)c3)O[C@H](CO[C@@H]3OC[C@@H](O)[C@H](O)[C@H]3O)[C@H]2OC(=O)/C=C/c2ccc(O)c(O)c2)[C@H](O)[C@H](O)[C@H]1O (stereo partly drawn) [Arenarioside]
[10]
  GI50: 10 to 16 µM

## COc1cc(O)c2c(c1)C(=O)c1cc(C)cc(O)c1C2=O [Rheochrysidin]
[11]
  IC50: 38.5 µM
[12]
  Kd: 26 µM

## Rhapontigenin
[13]
  IC50: 48 µM
[14]
  IC50: 0.4 µM
[15]
  IC50: 48 µM

## C[C@H]1COC2=C1C(=O)C(=O)c1c2ccc2c1CCCC2(C)C [Cryptotanshinone]
[16]
  IC50: 4.6 µM
[17]
  inhibition of STAT5: no inhibition
[18]
  inhibition of STAT1: no inhibition

## CC(C)=CCc1cc2ccc(=O)oc2cc1O [7-demethylsuberosin]
[19]
  IC50: 9.42 µM

## C=C(C)[C@@H]1CC[C@]2(C)CC[C@]3(C)[C@H](CC[C@@H]4[C@@]5(C)CCC(=O)C(C)(C)[C@@H]5CC[C@]43C)[C@@H]12 [LUPENONE]
[20]
  IC50: 15.1 µM

## Oc1ccc(OC2CCCCO2)cc1 (stereo not drawn) [Deoxyarbutin]
[21]
  IC50: 0.05 µM

## O=c1c(O)c(-c2ccc(O)cc2O)oc2cc(O)cc(O)c12 [Morin]
[22]
  IC50: 2.33 µM

## C[C@]1(OC(=O)/C=C/c2ccccc2)C[C@@H](O)[C@]2(O)C=CO[C@@H](O[C@@H]3O[C@H](CO)[C@@H](O)[C@H](O)[C@H]3O)[C@@H]21 [Harpagoside]
[23]
  inhibition of seed germination: 1. Harpagoside has anti-inflammatory activity. 2. Harpagoside at 3 mM concentration, shows moderate inhibition of seed germination. 3. Harpagoside can inhibit lipopolysaccharide-induced mRNA levels and protein expression of cyclooxygenase-2 and inducible nitric oxide in HepG2 cells.

## O=C(OC[C@H]1OC(OC(=O)c2cc(O)c(O)c(O)c2)[C@H](OC(=O)c2cc(O)c(O)c(O)c2)[C@@H](OC(=O)c2cc(O)c(O)c(O)c2)[C@@H]1OC(=O)c1cc(O)c(O)c(O)c1)c1cc(O)c(O)c(O)c1 (stereo partly drawn) [1,2,3,4,6-O-Pentagalloylglucose]
[24]
  reduction of the HBsAg level: 25%

## C/C=C/C#CC#C/C=C/c1ccco1 [Atractylodin]
[25]
  LD50: 1.83 µg/cm
[26]
  IC50: 39.1 µM
[27]
  repellency: > 90%

## CC(C)c1cc2c(c(O)c1O)[C@@]13CCCC(C)(C)[C@@H]1C[C@@H]2OC3=O [Carnosol]
[28]
  EC50: 12.5 µM

## O=C1Nc2ccccc2/C1=C1/Nc2ccccc2C1=O [Indirubin]
[29]
  IC50: ~5 µM
[30]
  IC50: ~0.6 µM
